Patent publication US7759351B2, “Oxazolidinone compounds, and compositions and methods related thereto” (Ferrer Internacional, S.A., priority 2005, dated 2010)
≈ marks a conversion by molar mass, not a printed value. Where two headings read alike, the source gives them in different places. Each block holds one compound with its values, some of them ahead of it.

How the values were obtained:
Staphylococcus = experiment: Selective activity: geometric mean MIC in Staphylococcus; assay type: cell-based; conditions: for Geometric Mean MIC Staphylococcus / MIC: geometric mean over Staphylococcus strains; for Selectivity Enterococcus/Staphylococcus: ratio of geometric mean MIC Enterococcus to geometric mean MIC Staphylococcus
Enterococcus = experiment: Selective activity: geometric mean MIC in Enterococcus; assay type: cell-based; conditions: geometric mean over Enterococcus strains
[1] = test system: S. aureus ATCC 25923 MS 319; experiment: MIC, standard microdilution method (NCCLS M7-A5); assay type: cell-based, Staphylococcus aureus; conditions: for MIC: Staphylococcus aureus, ATCC25923, read-out: In vitro activities against bacteria, MIC
[2] = test system: S. epidermidis ATCC 12228 MR 11; experiment: microbe, parasite or virus in culture; assay type: cell-based, Staphylococcus epidermidis; conditions: for MIC: Staphylococcus epidermidis, ATCC12228, read-out: In vitro activities against bacteria, MIC
[3] = test system: S. aureus ATCC 43300 MR 214; experiment: MIC, standard microdilution method (NCCLS M7-A5); assay type: cell-based, Staphylococcus aureus; conditions: for MIC: Staphylococcus aureus, ATCC43300, read-out: In vitro activities against bacteria, MIC
[4] = test system: S. pneumoniae ATCC 49619 PR 215; experiment: MIC, standard microdilution method (NCCLS M7-A5); assay type: cell-based, Streptococcus pneumoniae; conditions: for MIC: Streptococcus pneumoniae, ATCC49619, read-out: In vitro activities against bacteria, MIC
human MAO-A = target: T1, human MAO-A (Homo sapiens, UniProt P21397); experiment: In vitro MAO-A enzymatic activity (kynuramine substrate, fluorescence); assay type: biochemical; conditions: compound at 10 μM
T1 construct: purchased Gentest, BD, USA; host or cells: SF9 insect cells (membranes)
T1 sequence (P21397 1-527): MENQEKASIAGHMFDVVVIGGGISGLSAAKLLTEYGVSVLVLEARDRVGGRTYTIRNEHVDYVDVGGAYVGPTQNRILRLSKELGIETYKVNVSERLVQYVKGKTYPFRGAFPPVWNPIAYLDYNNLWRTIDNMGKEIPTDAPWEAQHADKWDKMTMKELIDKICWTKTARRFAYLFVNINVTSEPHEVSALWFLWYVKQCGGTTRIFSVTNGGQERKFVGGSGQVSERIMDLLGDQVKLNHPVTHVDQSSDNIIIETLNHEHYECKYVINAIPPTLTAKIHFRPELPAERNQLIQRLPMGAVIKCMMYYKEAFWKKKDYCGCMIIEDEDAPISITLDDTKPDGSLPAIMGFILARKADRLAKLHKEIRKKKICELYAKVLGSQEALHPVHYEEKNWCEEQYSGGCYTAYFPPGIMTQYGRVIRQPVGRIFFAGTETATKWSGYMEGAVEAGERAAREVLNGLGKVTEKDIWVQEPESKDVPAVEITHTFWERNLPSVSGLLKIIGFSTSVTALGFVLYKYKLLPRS

human MAO-B = target: T2, human MAO-B (Homo sapiens, UniProt P27338); experiment: In vitro MAO-B enzymatic activity (kynuramine substrate, fluorescence); assay type: biochemical; conditions: human MAO-B, compound at 1 μM
T2 construct: purchased Gentest, BD, USA; host or cells: SF9 insect cells (membranes)
T2 sequence (P27338 1-520): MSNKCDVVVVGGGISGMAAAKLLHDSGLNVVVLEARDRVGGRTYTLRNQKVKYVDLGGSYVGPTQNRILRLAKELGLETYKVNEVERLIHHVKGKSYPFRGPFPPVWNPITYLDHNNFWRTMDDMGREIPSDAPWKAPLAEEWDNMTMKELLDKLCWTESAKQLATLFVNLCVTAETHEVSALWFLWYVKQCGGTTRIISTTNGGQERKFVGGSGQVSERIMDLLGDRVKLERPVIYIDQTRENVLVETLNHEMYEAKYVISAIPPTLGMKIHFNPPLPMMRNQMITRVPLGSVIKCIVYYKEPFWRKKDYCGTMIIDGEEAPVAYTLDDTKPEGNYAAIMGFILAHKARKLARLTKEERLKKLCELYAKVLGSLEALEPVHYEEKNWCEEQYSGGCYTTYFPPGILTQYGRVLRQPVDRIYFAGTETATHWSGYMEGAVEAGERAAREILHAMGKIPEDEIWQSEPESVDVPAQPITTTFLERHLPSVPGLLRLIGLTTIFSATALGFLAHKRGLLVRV

[5] = test system: Moxorella, Pasteurella and Bacteroides spp.; conditions: background literature; cited from earlier work
[6] = S. pneumoniae ATCC 49619 PR 215
[7] = S. epidermidis ATCC 12228 MR 11
[8] = listed as Comparartive Example 1

Geometric Mean MIC Staphylococcus (Staphylococcus): 12.7 µg/mL
Geometric Mean MIC Enterococcus (Enterococcus): 3.4 µg/mL
Structure (SMILES): O=C(NC[C@H]1CN(c2ccc(N3CCOCC3)c(F)c2)C(=O)O1)c1coc2ccccc12 [Comparative Example 2, reference compound]
Selectivity Enterococcus/Staphylococcus (Staphylococcus): 0.3

Geometric Mean MIC Staphylococcus (Staphylococcus): 0.8 µg/mL
Geometric Mean MIC Enterococcus (Enterococcus): 0.7 µg/mL
Structure (SMILES): O=C(NC[C@H]1CN(c2ccc(N3CCOCC3)c(F)c2)C(=O)O1)c1cc2cc([N+](=O)[O-])ccc2o1 [Comparative Example 3, reference compound]
Selectivity Enterococcus/Staphylococcus (Staphylococcus): 0.9

MIC (Staphylococcus): 0.6 µg/mL (≈ 1.21 µM)
Geometric Mean MIC Enterococcus (Enterococcus): 5.7 µg/mL
Structure (SMILES): COc1ccc2cc(C(=O)NC[C@H]3CN(c4ccc(N5CCOCC5)c(F)c4)C(=O)O3)c(C)nc2c1 [Ex. 1, 7-methoxy-2-methyl-N-[[(5S)-3-[3-fluoro-4-(4-morpholinyl)phenyl]-2-oxo-5-oxazolidinyl]methyl]-3-quinolinecarboxamide]
Selectivity Enterococcus/Staphylococcus (Staphylococcus): 9.5

MIC (Staphylococcus): 0.4 µg/mL (≈ 0.747 µM)
Geometric Mean MIC Enterococcus (Enterococcus): 5.7 µg/mL
Structure (SMILES): COc1ccc2cc(C(=O)NC[C@H]3CN(c4ccc(N5CCN(C(C)=O)CC5)c(F)c4)C(=O)O3)c(C)nc2c1 [Ex. 3, 7-methoxy-2-methyl-N-[[(5S)-3-[3-fluoro-4-(4′-acetyl-4-piperazinyl)-phenyl]-2-oxo-5-oxazolidinyl]methyl]-3-quinolinecarboxamide]
Selectivity Enterococcus/Staphylococcus (Staphylococcus): 14.3

Structure (SMILES): COc1ccc2cc(C(=O)NC[C@H]3CN(c4ccc(N5CCS(=O)(=O)CC5)c(F)c4)C(=O)O3)c(C)nc2c1 [Ex. 8, 7-methoxy-2-methyl-N-[[(5S)-3-[3-fluoro-4-(1,1-dioxothiomorpholin-4-yl)-phenyl]-2-oxo-5-oxazolidinyl]methyl]-3-quinolinecarboxamide]
MIC ([1]; S. aureus ATCC 25923 MS 319): 2 µg/mL (≈ 3.69 µM)
MIC [2]: 2 µg/mL (≈ 3.69 µM)
MIC ([3]; S. aureus ATCC 43300 MR 214): 2 µg/mL (≈ 3.69 µM)
MIC [4, 6]: 1 µg/mL (≈ 1.84 µM)

MIC (Staphylococcus): 1 µg/mL (≈ 2.02 µM)
Geometric Mean MIC Enterococcus (Enterococcus): 8 µg/mL
Structure (SMILES): COc1ccc2nc(C)c(C(=O)NC[C@H]3CN(c4ccc(N5CCOCC5)c(F)c4)C(=O)O3)cc2c1 [Ex. 18]
Selectivity Enterococcus/Staphylococcus (Staphylococcus): 8.0

Geometric Mean MIC Staphylococcus (Staphylococcus): 0.6 µg/mL
Geometric Mean MIC Enterococcus (Enterococcus): 16 µg/mL
Structure (SMILES): C=CC(=O)N1CCN(c2ccc(N3C[C@H](CNC(=O)c4cc5ccc(OC)cc5nc4C)OC3=O)cc2F)CC1 [Ex. 24]
Selectivity Enterococcus/Staphylococcus (Staphylococcus): 27.0

Geometric Mean MIC Staphylococcus (Staphylococcus): 1.7 µg/mL
Geometric Mean MIC Enterococcus (Enterococcus): 32 µg/mL
Structure (SMILES): COc1ccc2cc(C(=O)NC[C@H]3CN(c4ccc(N5CCN(C(=O)C6=NNC(=O)CC6)CC5)c(F)c4)C(=O)O3)c(C)nc2c1 [Ex. 29]
Selectivity Enterococcus/Staphylococcus (Staphylococcus): 18.8

Structure (SMILES): COc1ccc2cc(C(=O)NC[C@H]3CN(c4ccc(N5CCN(C(=O)c6c[nH]cn6)CC5)c(F)c4)C(=O)O3)c(C)nc2c1 [Ex. 31]
In vitro activities against bacteria, MIC ([1]; S. aureus ATCC 25923 MS 319): 4.00 µg/mL
In vitro activities against bacteria, MIC [2, 7]: 2.00 µg/mL
In vitro activities against bacteria, MIC ([3]; S. aureus ATCC 43300 MR 214): 2.00 µg/mL
In vitro activities against bacteria, MIC [4, 6]: 4.00 µg/mL

Structure (SMILES): COc1ccc2cc(C(=O)NC[C@H]3CN(c4ccc(N5CCN(C(=O)C6CC6)CC5)c(F)c4)C(=O)O3)c(C)nc2c1 [Ex. 34]
MAO-A % inh (10 μM) (human MAO-A): 7%
In vitro activities against bacteria, MIC ([1]; S. aureus ATCC 25923 MS 319): 0.50 µg/mL
Geometric Mean MIC Staphylococcus (Staphylococcus): 0.4 µg/mL
Selectivity Enterococcus/Staphylococcus (Staphylococcus): 100
Geometric Mean MIC Enterococcus (Enterococcus): 40.3 µg/mL
MAO-B % inh (1 μM) (human MAO-B): 8%
In vitro activities against bacteria, MIC [2, 7]: 0.50 µg/mL
In vitro activities against bacteria, MIC ([3]; S. aureus ATCC 43300 MR 214): 0.50 µg/mL
In vitro activities against bacteria, MIC [4, 6]: 0.50 µg/mL

Geometric Mean MIC Staphylococcus (Staphylococcus): 0.6 µg/mL
Geometric Mean MIC Enterococcus (Enterococcus): 5.0
Structure (SMILES): COc1ccc2cc(C(=O)NC[C@H]3CN(c4ccc(N5CCN(C(=O)CO)CC5)c(F)c4)C(=O)O3)c(C)nc2c1 [Ex. 35]
Selectivity Enterococcus/Staphylococcus (Staphylococcus): 8.3

Structure (SMILES): COc1ccc2cc(C(=O)NC[C@H]3CN(c4ccc(N5CCN(C(=O)c6cccnc6)CC5)c(F)c4)C(=O)O3)c(C)nc2c1 [Ex. 42]
MAO-A % inh (10 μM) (human MAO-A): 5%
In vitro activities against bacteria, MIC [1]: 1.00 µg/mL
MAO-B % inh (1 μM) (human MAO-B): 7%
In vitro activities against bacteria, MIC [2]: 0.5 µg/mL
In vitro activities against bacteria, MIC [3]: 0.06 µg/mL
In vitro activities against bacteria, MIC [4]: 1.00 µg/mL

Structure (SMILES): CC(=O)NC[C@H]1CN(c2ccc(N3CCOCC3)c(F)c2)C(=O)O1 [Linezolid, N-[[(5S)-3-[3-fluoro-4-(4-morpholinyl)phenyl]-2-oxo-5-oxazolidinyl]methyl]acetamide, reference compound]
inhibition at 10 µM (human MAO-A; read-out: MAO-A % inh (10 μM)): 41%
MIC ([1]; S. aureus ATCC 25923 MS 319): 2 µg/mL (≈ 5.93 µM)
inhibition at 1 µM (human MAO-B; read-out: MAO-B % inh (1 μM)): 62%
MIC [2]: 1 µg/mL (≈ 2.96 µM)
MIC [5]: 2 to 8 µg/mL
MIC ([3]; S. aureus ATCC 43300 MR 214): 1 µg/mL (≈ 2.96 µM)
MIC [4, 6]: 2 µg/mL (≈ 5.93 µM)

Geometric Mean MIC Staphylococcus (Staphylococcus): 5.7 µg/mL
Geometric Mean MIC Enterococcus (Enterococcus; [8]): 4.8 µg/mL
Structure (SMILES): COc1ccc2cc(C(=O)NC[C@H]3CN(c4ccc(N5CCOCC5)c(F)c4)C(=O)O3)c(C)nc2c1 [compound 1, reference compound]
Selectivity Enterococcus/Staphylococcus (Staphylococcus; [8]): 0.8
